Values of other authors, collected in US8906391B2, “Thermorod for active drug release and method for manufacturing the same” (Korea Sangsa Co., Ltd., priority 2008, dated 2014).

Details: characteristics of the drugs, Table 1

| Hydrophobicity (Log P) | SMILES |
| --- | --- |
| 0.917 | CC(=O)Nc1ccc(O)cc1 [Acetaminophen] |
| 3.06 | CC[C@H]1OC(=O)[C@H](C)[C@@H](O[C@H]2C[C@@](C)(OC)[C@@H](O)[C@H](C)O2)[C@H](C)[C@@H](O[C@@H]2O[C@H](C)C[C@H](N(C)C)[C@H]2O)[C@](C)(O)C[C@@H](C)C(=O)[C@H](C)[C@@H](O)[C@]1(C)O [Erythromycin] |
| 4.258 | CC(=O)O[C@@]12CO[C@@H]1C[C@H](O)[C@@]1(C)C(=O)[C@H](O)C3=C(C)[C@@H](OC(=O)[C@H](O)[C@@H](NC(=O)OC(C)(C)C)c4ccccc4)C[C@@](O)([C@@H](OC(=O)c4ccccc4)[C@H]21)C3(C)C [Docetaxel] |
| 5.029 | CC(=O)O[C@H]1C(=O)[C@@]2(C)[C@H]([C@H](OC(=O)c3ccccc3)[C@]3(O)C[C@H](OC(=O)[C@H](O)[C@@H](NC(=O)c4ccccc4)c4ccccc4)C(C)=C1C3(C)C)[C@]1(OC(C)=O)CO[C@@H]1C[C@@H]2O [Paclitaxel] |
